From US20050272682A1, “SiRNA targeting PI3K signal transduction pathway and siRNA-based therapy” (priority 2004, published 2005)
“Also recorded” adds a separate entry of the source.

Experiments:
Format in all cases: cell-based, human
KM12C cells [1] = assay: MTT assay, KM12C cells; details: KM12C cells at 96, 120 and 144 h after transfection
Method: Cells were transfected with pik3r1, Akt1 or scrambled siRNA at a density of 2×10^5 cells/well in 12 well plates. After 24 h, adherent cells were detached by rapid trypsinization, counted in a Hausser chamber and replated into 96 well plates at a concentration of 2×10^3 cells/well. […]

KM20 cells [2] = assay: DNA fragmentation assay (Cell Death Detection ELISA), KM20 cells; details: KM20 cells
Method: (§1) Cells were transfected with pik3r1, Akt1 or scrambled siRNA. After 48 h, adherent cells were detached by rapid trypsinization, counted in a Hausser chamber and seeded at a density of 2×10^3 cells per well in 96-well flat-bottom microtiter plates and incubated in 250 μl of growth medium for 24 h at 37° C. Media were removed and either new complete media or TRAIL (100 ng/mL) was added in a final volume of 200 μL and allowed to grow for 24 h at 37° C. After treatment, DNA fragmentation was evaluated by examination of cytoplasmic histone-associated DNA fragments (mono- and oligonucleosomes) using a Cell Death Detection ELISA^Plus kit (Roche Molecular Biochemicals) according to the manufacturer's instructions and as previously described (Wang. et al., 2002). The experiments were repeated on at least 3 separate occasions.

KM12C cells [3] = assay: DNA fragmentation assay (Cell Death Detection ELISA), KM12C cells
Method: as §1

KM20 cells [4] = assay: Western blot of apoptosis-related proteins, KM20 cells
Method: Cell culture transfection was carried out with siPORT™ Amine transfection agent according to the manufacturer's protocol. Three days after transfection with the siRNA duplexes, cells were harvested and protein expression was assessed by Western blot.
Western immunoblot analyses were performed as described previously (Wang, et al., 2000). Cells were lysed with TNN buffer at 4° C. for 30 min. Lysates were clarified by centrifugation (10,000×g for 30 min at 4° C.) and protein concentrations determined using the method of Bradford (1976). Briefly, total protein (100 μg) was resolved on a 10% polyacrylamide gel and transferred to Immobilon-P […] membranes. Filters were incubated overnight at 4° C. in blotting solution (Tris-buffered saline containing 5% nonfat dried milk and 0.1% Tween 20), followed by a 1-h incubation with primary antibodies. Filters were washed three times in a blocking solution and incubated with horseradish peroxidase-conjugated secondary antibodies for 1 h. After three additional washes, the immune complexes were visualized by ECL detection.

KM20 cells [5] = assay: Ribonuclease protection assay, KM20 cells
Method: Cells were treated with pik3r1 and Akt1 siRNA and harvested 72 h later. RNA was isolated from cells using TRIzol® RNA reagent according to the manufacturer's protocol. A multiprobe template set (hAPO3c), which assesses expression of caspase 8, FASL, FAS, DR3, Decoy receptor 1 (DcR1), DR4, DR5, TRAIL, TNFR p55, TRADD and the housekeeping genes GAPDH and L32, as well as the Human Apoptosis hAPO-2b and hAPO-2c Template Set were labeled using Ambion T7 MAXIscript. The Ambion RPA III kit was then utilized to hybridize the RNA from the samples with the labeled probes. After RNAse treatment of hybridized samples, protected products were resolved on a 5% acrylamide gel, adsorbed onto filter paper, and exposed to Kodak BioMax MR film in a cassette at −70° C. and analyzed as previously described (Wang, et al., 2000).

[6] = siRNA alone compared to scrambled sequence
[7] = siRNA in combination with TRAIL 100 ng/mL
[8] = siRNA in combination with TRAIL

## pik3r1 siRNA: siRNA to human pik3r1 (p85α) used in KM20/KM12C cells and xenografts; SEQ ID NO:24 vs. SEQ ID NO:25 (chain 1 GAAUAUACCCGCACAUCCCUU; chain 2 GGGAUGUGCGGGUAUAUUCUU; listed as RNA, chemistry not given here)
KM12C cells [1]
  cell viability (MTT): significantly decreased
KM20 cells [2]; [6]
  DNA fragmentation (apoptosis): increase; also recorded: induced
KM20 cells [2]; [7]
  TRAIL-mediated apoptosis (DNA fragmentation): significant augmentation
KM12C cells [3]; [6]
  DNA fragmentation (apoptosis): increase; also recorded: induced
KM12C cells [3]; [7]
  TRAIL-mediated apoptosis (DNA fragmentation): significant augmentation
KM20 cells [4]
  Bax protein expression: increased
  Bcl-2 protein expression: decreased
  Bcl-xL protein expression: decreased
  caspase-9 activation (35 kDa large active subunit): activation
  cytochrome C release: induced
  protein expression for DR4/DR5: increased
KM20 cells [4]; [8]
  BID cleavage: BID cleavage
  caspase-8 activation: activated
KM20 cells [4]; siRNA in combination with TRAIL compared with TRAIL alone
  cleavage of pro-caspase-3: enhanced
KM20 cells [5]
  Bcl-w mRNA expression: decreased
  Bcl-x (L, S) mRNA expression: decreased
  expression of the other apoptotic-related genes in the probe set: no marked change
  mRNA expression of DR4 and DR5: increased
